Measurements from patent US8952024B2, “Herbicidal pyrimidone derivatives” (E I du Pont de Nemours and Company, priority 2009, dated 2015).

Experiments:
Assay type in all cases: in vivo
[1] = system: Italian ryegrass (Lolium multiflorum); assay: Test B pre-/postemergence plant response; details: for Plant response rating, Ryegrass, Italian: Postemergence
Summary of the method: (§1)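 Pre-em in loam/sand; post-em at 1–4 leaf (2–18 cm) in peat mix. Solvent + surfactant formulation. Greenhouse 13–15 d; visual % control vs untreated, 0–100.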

[2] = system: pigweed (Amaranthus retroflexus); assay: Test B pre-/postemergence plant response; details: for Plant response rating, Pigweed: Postemergence
Summary of the method: as §1

[3] = system: wheat (Triticum aestivum); assay: Test B pre-/postemergence plant response; details: for Plant response rating, Wheat: Postemergence
Summary of the method: as §1

[4] = system: lambsquarters (Chenopodium album); assay: Test B pre-/postemergence plant response; details: for Plant response rating, Lambsquarters: Postemergence
Summary of the method: as §1

[5] = system: bermudagrass (Cynodon dactylon); assay: Test B pre-/postemergence plant response; details: for Plant response rating, Bermudagrass: Postemergence
Summary of the method: as §1

[6] = system: ragweed (common ragweed, Ambrosia elatior); assay: Test B pre-/postemergence plant response; details: for Plant response rating, Ragweed: Postemergence
Summary of the method: as §1

[7] = system: windgrass (Apera spica-venti); assay: Test B postemergence plant response; details: for Plant response rating, Windgrass: Postemergence
Summary of the method: (§2)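 Plants at the 1- to 4-leaf stage (2 to 18 cm tall), grown in pots of peat moss/vermiculite medium with wetting agent and starter nutrients, received postemergence applications of test chemicals. After 13 to 15 days in a greenhouse, injury was rated visually against untreated controls on a 0 (no effect) to 100 (complete control) scale.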

[8] = system: winter barley (Hordeum vulgare); assay: Test B postemergence plant response; details: for Plant response rating, Barley: Postemergence
Summary of the method: as §2

[9] = system: chickweed (Stellaria media); assay: Test B postemergence plant response; details: for Plant response rating, Chickweed: Postemergence
Summary of the method: as §2

[10] = system: canarygrass (Phalaris minor); assay: Test B postemergence plant response; details: for Plant response rating, Canarygrass: Postemergence
Summary of the method: as §2

[11] = 62 g ai/ha, postemergence, 0 is no effect, 100 is complete control, 13 to 15 days
[12] = 31 g ai/ha, 0 to 100 scale (0 no effect, 100 complete control)
[13] = 125 g ai/ha, scale 0 to 100 (0 no effect, 100 complete control)
[14] = 250 g ai/ha, scale 0 to 100 (0 no effect, 100 complete control), 13 to 15 days

In the case of `CCCn1c(-c2cccc(F)c2)ncc(C(=O)C2=C(O)CCCC2=O)c1=O` [Compound 127], the “Ryegrass, Italian plant response rating (0 to 100 scale)” value [1, 11] is reported as 5, the “Plant response rating, Ryegrass, Italian” value [1, 12] is reported as 0 and the “Plant response rating, Ryegrass, Italian” value [1, 13] is reported as 5. The “Plant response rating, Ryegrass, Italian” value [1, 14] was 30, the “Pigweed plant response rating (0 to 100 scale)” value [2, 11] was 95 and the “Plant response rating, Pigweed” value [2, 12] was 80. The “Plant response rating, Pigweed” value [2, 13] was 95, the “Plant response rating, Pigweed” value [2, 14] was 100 and the “Wheat plant response rating (0 to 100 scale)” value [3, 11] was 10. For the same compound, the “Plant response rating, Wheat” value [3, 12] was 5, the “Plant response rating, Wheat” value [3, 13] was 25 and the “Plant response rating, Wheat” value [3, 14] was 40. For the same compound, the “Lambsquarters plant response rating (0 to 100 scale)” value [4, 11] was 85, the “Plant response rating, Lambsquarters” value [4, 12] was 75 and the “Plant response rating, Lambsquarters” value [4, 13] was 90. For the same compound, the “Plant response rating, Lambsquarters” value [4, 14] was 95, the “Bermudagrass plant response rating (0 to 100 scale)” value [5, 11] was 95 and the “Plant response rating, Bermudagrass” value [5, 12] was 95. The “Plant response rating, Bermudagrass” value [5, 13] was 98, the “Plant response rating, Bermudagrass” value [5, 14] was 98 and the “Ragweed plant response rating (0 to 100 scale)” value [6, 11] was 85. The “Plant response rating, Ragweed” value [6, 12] was 70, the “Plant response rating, Ragweed” value [6, 13] was 98 and the “Plant response rating, Ragweed” value [6, 14] was 98. The “Windgrass plant response rating (0 to 100 scale)” value [7, 11] was 50, the “Plant response rating, Windgrass” value [7, 12] was 25 and the “Plant response rating, Windgrass” value [7, 13] was 55. The “Plant response rating, Windgrass” value [7, 14] was 70, the “Barley plant response rating (0 to 100 scale)” value [8, 11] was 20 and the “Plant response rating, Barley” value [8, 12] was 0. The “Plant response rating, Barley” value [8, 13] was 35, the “Plant response rating, Barley” value [8, 14] was 60 and the “Chickweed plant response rating (0 to 100 scale)” value [9, 11] was 75. For the same compound, the “Plant response rating, Chickweed” value [9, 12] was 65, the “Plant response rating, Chickweed” value [9, 13] was 98 and the “Plant response rating, Chickweed” value [9, 14] was 98. The “Canarygrass plant response rating (0 to 100 scale)” value [10, 11] was 10, the “Plant response rating, Canarygrass” value [10, 12] was 5 and the “Plant response rating, Canarygrass” value [10, 13] was 35. For the same compound, the “Plant response rating, Canarygrass” value [10, 14] was 60.
